Source: PubChem BioAssay AID743304 (Broad Institute, 2014)
Values joined by “and” are separate entries in the source; they are usually repeats but may differ in a detail not shown here. Equal entries are not always repeated. Active and inactive are the calls of the source.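 How the source made its calls: active means signal drop whose fitted half-maximal dose is no more than twice the top valid dose; inconclusive means flat curve with 30 to 70% inhibition, or unreliable fit; inactive means the rest, including rising signal.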

Assays:
[1] = system: C. neoformans growth with sorbitol, alamar blue, 24 h; test: antifungal growth inhibition under osmotic support – sorbitol, alamar blue, dry powder, set 3, mechanism study for C. neoformans lysis project, dose response (AID 743304)
[2] = as above; conditions: C. neoformans growth with sorbitol, alamar blue, 24 h; at 35 µM (top of the series)

Row | SMILES | AC50 [1] | activity change, negative = inhibition [2]
1 | Cc1ccc(OCCn2cnc3ccccc32)cc1 | 5.96 µM | 
2 | CC(C)(C)c1ccccc1OCCn1c(=S)[nH]c2ccccc21 | 8.32 µM | 
3 | Fc1cccc2c1[nH]c(=S)n2CCOc1ccccc1 | 21.4 µM and 22.2 µM and 23.1 µM | 
4 | Cc1ccc(OCCn2c(C)nc3ccccc32)cc1 | 6.48 µM | 
5 | CC(C)(C)c1ccc(OCCn2cnc3ccccc32)cc1 | 8.05 µM | 
6 | CC(C)c1ccc(OCCn2c(=S)[nH]c3ccccc32)cc1 | 4.21 µM | 
7 | S=c1[nH]c2cc(Cl)ccc2n1CCOc1ccccc1 |  | 17.6% (inactive)
8 | Cc1ccc(OCCn2c(=S)[nH]c3ccccc32)c(C(C)C)c1 | 10.2 µM and 6.37 µM | 
9 | CC(C)(C)c1ccc(OCCn2c(=S)[nH]c3ccccc32)cc1 | 4.94 µM | 
10 | Cc1ccc2c(c1)[nH]c(=S)n2CCOc1ccccc1 | 11.6 µM and 12.9 µM | 
11 | Cc1ccc(C(C)C)c(OCCn2c(=S)[nH]c3cccc(Cl)c32)c1 | 7.25 µM | 
12 | S=c1[nH]c2ccccc2n1CCOc1ccc(Cl)cc1 | 6.3 µM | 
13 | S=c1[nH]c2cccc(Cl)c2n1CCOc1ccccc1 | 5.74 µM and 5.16 µM | 
14 | CCOc1ccc(OCCn2c(=S)[nH]c3ccccc32)cc1 | 11.1 µM | 
15 | Fc1ccc2c(c1)[nH]c(=S)n2CCOc1ccccc1 | 25 µM and 23.1 µM | 
16 | Cc1ccccc1OCCn1c(=S)[nH]c2ccccc21 | 31.2 µM | 
17 | Cc1cccc2[nH]c(=S)n(CCOc3ccccc3)c12 | 14.2 µM | 
18 | Cc1ccc(OCCn2c(=S)[nH]c3ccccc32)c(C)c1 |  | 7.99% (inactive)
19 | S=c1[nH]c2ccccc2n1CCOc1ccccc1Cl | 24 µM | 
20 | Cc1cccc(OCCn2c(=S)[nH]c3ccccc32)c1 | 22.4 µM | 
21 | Cc1ccc(C(C)C)c(OCCn2c(=S)[nH]c3cccc(F)c32)c1 | 10.9 µM | 
22 | Cc1ccc(C(C)C)c(OCCn2c(=S)[nH]c3c(C)cccc32)c1 |  | 34.1% (inactive)
23 | Cc1ccc(C(C)C)c(OCCn2c(=S)[nH]c3c(F)cccc32)c1 |  | 48.2% (inactive)
24 | CC(C)c1ccccc1NCCn1c(=S)[nH]c2ccccc21 |  | 1.72% (inactive)
25 | Cc1ccc(C(C)C)c(OCCn2c(=S)[nH]c3c(Cl)cccc32)c1 |  | -14.9% (inactive)
26 | Fc1ccc(OCCn2c(=S)[nH]c3ccccc32)cc1 | 27.3 µM | 

Row | SMILES | AC50 [1] | activity change, negative = inhibition [2]
27 | Cc1ccc(OCCn2c(SCCO)nc3ccccc32)c(C(C)C)c1 | 8.48 µM | 
28 | Cc1ccc(C(C)C)c(OCCn2c(=S)[nH]c3cccc(C)c32)c1 | 16.4 µM | 
29 | Cc1cccc(OCCn2c(=S)[nH]c3ccc(C(F)(F)F)cc32)c1 |  | 24.8% (inactive)
30 | COc1cccc(OCCn2c(=S)[nH]c3ccccc32)c1 | 26.1 µM | 
31 | Cc1ccc(C(C)C)c(OCCn2c(=S)[nH]c3ccc(F)cc32)c1 |  | 14.7% (inactive)
32 | Cc1cccc(OCCn2c(=S)[nH]c3ccccc32)c1C | 6.75 µM | 
33 | O=c1[nH]c2ccccc2n1CCOc1ccccc1 | 24.1 µM | 
34 | Cc1ccc(OCCn2cnc3ccccc32)c(C(C)C)c1 | 24 µM | 
35 | Fc1ccc2[nH]c(=S)n(CCOc3ccccc3)c2c1 | 23.5 µM | 
36 | COc1ccc(OCCn2c(=S)[nH]c3ccccc32)cc1 | 26.2 µM | 
37 | S=c1[nH]c2ccccc2n1CCOc1ccccc1 | 24.5 µM | 
38 | COc1ccccc1OCCn1c(=S)[nH]c2ccccc21 |  | 36.1% (inactive)
39 | Cc1ccc(C(C)C)c(OCCn2c(=S)[nH]c3ccc(Cl)cc32)c1 |  | 36.9% (inactive)
40 | Cc1ccc(C(C)C)c(OCCn2c(CO)nc3ccccc32)c1 | 33.6 µM | 
41 | c1ccc(OCCn2cnc3ccccc32)cc1 |  | 39.4% (inactive)
42 | CC(C)c1ccccc1OCCn1c(=S)[nH]c2ccccc21 | 18.4 µM | 
43 | Cc1cccc(OCCn2c(=S)[nH]c3cc(C(F)(F)F)ccc32)c1 |  | 8.97% (inactive)
44 | Cc1cccc(OCCn2c(=S)[nH]c3cc(F)ccc32)c1 | 11.2 µM and 10.4 µM | 
45 | Cc1ccc(OCCn2c(=S)[nH]c3ccccc32)cc1 | 6.11 µM | 
46 | Cc1ccc(C)c(OCCn2c(=S)[nH]c3ccccc32)c1 |  | -7.02% (inactive)
47 | Cc1ccc(C(C)C)c(OCCn2c(=S)[nH]c3ccccc32)c1 | 6.96 µM and 7.67 µM | 
48 | Fc1cccc(OCCn2c(=S)[nH]c3ccccc32)c1 | 20.5 µM | 
49 | Fc1ccccc1OCCn1c(=S)[nH]c2ccccc21 | 21.9 µM | 
50 | Cc1ccc(C(C)C)c(OCCn2c(=S)[nH]c3cc(F)ccc32)c1 |  | 9.32% (inactive)
51 | Cc1cccc(OCCn2c(=S)[nH]c3c(F)cccc32)c1 | 16.4 µM and 16.6 µM | 
